Test results reported in patent publication US20080286315A1, “Methionine Enkephalin as an Adjuvant for Vaccine Immunizations” (Penta Biotech, Inc., priority 2007, published 2008).

Columns and labels:
Format in all cases: cell-based, IRM-2 mice
immature dendritic cells = test: Dendritic cell density and proliferation with different concentrations of MEK (cell counting / MTT assay); settings: for Cell Density: 9 days culture with IL-4 and GM-CSF; for Increase Percent: control = 100.0
Experimental: (§1) Immature dendritic cells were isolated from spleens of IRM-2 mice with lymphocyte separation solution. The method used was adapted from a method of isolating lymphocytes using a centrifugation technique. First, diluted defibrinated blood was layered on a solution of sodium metrizoate and Dextran or Ficoll® and centrifuged at low speeds for 30 minutes. […] Mononuclear cells (lymphocytes and monocytes) and platelets are contained in the banded plasma-lymphocyte separation medium interphase due to their density. Erythrocytes and granulocytes migrate through the gradient and form a pellet to the bottom of the tube. Lymphocytes were recovered by aspirating the plasma layer and removing the cells. After proper washing and treatment, cells were suspended in RPMI-1640 containing 10% FCS and incubated in a CO2-incubator (37° C., 5% CO2) for 2 hours before use.
(§2) The immature dendritic cells were divided into 6 groups and were centrifuged to remove the supernatants. RPMI-1640 containing 10 ng/ml IL-4, 100 ng/ml GM-CSF, 10% FCS, and MEK at either 0 ng/ml, 7.5 ng/ml, 15 ng/ml, 30 ng/ml, 60 ng/ml or 120 ng/ml was then added to the cells. The final cell density was 2×10^5 cells/ml. Cells were returned to the CO2-incubator and the media were replaced in half volumes every other day starting on the 3rd day. Cells were allowed to grow for 9 days and thereafter cell numbers were counted with an inverted phase-contrasted microscope. The group of cells having the highest density was regarded as having the most optimum conditions in terms of concentration for cytokines. Cell density was determined using the MTT [3-(4,5-Dimethylthiazol-2-yl)-2,5-Diphenyltetrazolium Bromide] assay, using methods known in the art. MEK facilitated the growth and multiplication of dendritic cells in a concentration dependent fashion. The effects were greatest with a MEK concentration at around 60 ng/ml and then decreased thereafter as MEK concentration increased.

dendritic cells [1] = test: Micrographs of dendritic cells (400x); settings: 60 ng/ml MEK; with IL-4 and GM-CSF
Text: FIGS. 1 and 2 show micrographs of dendritic cells magnified 400×. Cells were isolated and cultured as described above.

dendritic cells [2] = test: Dendritic cell surface marker expression (FITC antibodies to CD11c and CD80, flow cytometry); settings: day 9
Experimental: as §1, §2
Cells isolated and cultured as described above were processed on the 9th day with the addition of FITC labeled antibodies to CD11c and CD80. CD11c is the most specific cell surface marker for mature dendritic cells. CD80 is another marker that is expressed on mature dendritic cells. Stained cells were analyzed with a flow cell cytometer and cells expressing fluorescence markers were regarded as positive. The positive rates were analyzed and calculated using Bios Consort 30 software.

cultured dendritic cells = test: IL-12 levels in supernatants of cultured dendritic cells (IL-12 ELISA); settings: supernatant day 9
Experimental: as §1, §2
To further characterize the cultured cells, cell culture supernatants were collected on the 9th day of incubation and were assayed according to the procedures defined in the IL-12 ELISA Assay Kit obtained from eBioscience, USA. IL-12 is a cytokine known to be secreted by mature dendritic cells.

With `CSCC[C@H](NC(=O)[C@@H](Cc1ccccc1)NC(=O)CNC(=O)CNC(=O)[C@H](N)Cc1ccc(O)cc1)C(=O)O` [MEK, methionine enkephalin] the “Cell Density” value (immature dendritic cells; MEK 7.5 ng/ml, start 2x10^5 cells/ml) was 2.2 ± 0.1 10^5/ml, the “Increase Percent” value (immature dendritic cells; MEK 7.5 ng/ml) was 127.1% and the “Cell Density” value (immature dendritic cells; MEK 15 ng/ml) was 2.5 ± 0.2 10^5/ml. The “Increase Percent” value (immature dendritic cells; MEK 15 ng/ml) was 133.3%, the “Cell Density” value (immature dendritic cells; MEK 30 ng/ml) was 2.9 ± 1.2 10^5/ml and the “Increase Percent” value (immature dendritic cells; MEK 30 ng/ml) was 159.2%. The “Cell Density” value (immature dendritic cells; MEK 60 ng/ml) was 4.8 ± 0.2 10^5/ml, the “Increase Percent” value (immature dendritic cells; MEK 60 ng/ml) was 246.5% and the “Cell Density” value (immature dendritic cells; MEK 120 ng/ml) was 3.1 ± 0.1 10^5/ml. For the same compound, the “Increase Percent” value (immature dendritic cells; MEK 120 ng/ml) was 165.5%, the “MEK concentration with greatest effect on growth and multiplication of dendritic cells” value (immature dendritic cells; tested 7.5-120 ng/ml, concentration dependent) was “around 60 ng/ml” and the “cell density in micrographs versus cells not treated with MEK” value (dendritic cells [1]) was “increase in cell density”. The “cell processes (veils or dendrites) on the dendritic cells versus cells not treated with MEK” value (dendritic cells [1]) was “increase in cell processes”, the “CD11C(+) %” value (dendritic cells [2]; MEK 7.5 ng/ml, control 47.2) was 49.9% and the “CD80(+) %” value (dendritic cells [2]; MEK 7.5 ng/ml, control 50.3) was 51.3%. For the same compound, the “CD11C(+) %” value (dendritic cells [2]; MEK 15 ng/ml) was 51.3%, the “CD80(+) %” value (dendritic cells [2]; MEK 15 ng/ml) was 54.1% and the “CD11C(+) %” value (dendritic cells [2]; MEK 30 ng/ml) was 55.6%. For the same compound, the “CD80(+) %” value (dendritic cells [2]; MEK 30 ng/ml) was 58.7%, the “CD11C(+) %” value (dendritic cells [2]; MEK 60 ng/ml) was 62.7% and the “CD80(+) %” value (dendritic cells [2]; MEK 60 ng/ml) was 64.6%. The “CD11C(+) %” value (dendritic cells [2]; MEK 120 ng/ml) was 57.3%, the “CD80(+) %” value (dendritic cells [2]; MEK 120 ng/ml) was 63.3% and the “IL-12 Level” value (cultured dendritic cells; MEK 7.5 ng/ml, control 68) was 102 ± 1.1 pg/mL. The “IL-12 Level” value (cultured dendritic cells; MEK 15 ng/ml) was 126 ± 0.4 pg/mL, the “IL-12 Level” value (cultured dendritic cells; MEK 30 ng/ml) was 175 ± 1.6 pg/mL and the “IL-12 Level” value (cultured dendritic cells; MEK 60 ng/ml) was 256 ± 0.3 pg/mL. For the same compound, the “IL-12 Level” value (cultured dendritic cells; MEK 120 ng/ml) was 227 ± 1.9 pg/mL.
